Measurements as given in PubChem BioAssay (NCI).
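Compound exposure: 48 hours, 5 concentrations, 96-well plates. At the GI50, growth is halved. TGI: total growth inhibition.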

Legend:
Test in all cases: DTP human tumour cell line panel, 48 h
[1] = system: OVCAR-8 ovarian
[2] = system: SN12C renal
[3] = system: SF-295 CNS
[4] = system: UACC-257 melanoma
[5] = system: SR leukemia
[6] = system: HOP-62 NSCLC
[7] = system: UACC-62 melanoma
[8] = system: NCI-H460 lung
[9] = system: HCC-2998 colon
[10] = system: LOX IMVI melanoma
[11] = system: MOLT-4 leukemia
[12] = system: MCF7 breast
[13] = system: DU-145 prostate
[14] = system: BT-549 breast
[15] = system: MDA-MB-231 breast

COC(=O)C1[C@@H](C(=O)OC)C12C=Cc1ccccc1C=C2 (stereo partly drawn)
TGI [1]: > 100 µM | TGI [2]: > 100 µM | TGI [3]: > 100 µM | TGI [4]: > 100 µM | TGI [5]: > 100 µM | TGI [6]: > 100 µM | TGI [7]: > 100 µM | TGI [8]: > 100 µM | TGI [9]: > 100 µM | TGI [10]: > 100 µM | TGI [11]: > 100 µM

Cc1nn(-c2ccccc2)c2[nH]c(=S)cnc12
TGI [12]: > 100 µM | TGI [1]: > 100 µM | TGI [2]: > 100 µM | TGI [3]: > 100 µM | TGI [4]: > 100 µM | TGI [5]: > 100 µM | TGI [6]: > 100 µM | TGI [7]: > 100 µM | TGI [8]: > 100 µM | TGI [13]: > 100 µM | TGI [10]: > 100 µM | TGI [11]: > 100 µM | TGI [14]: > 100 µM

CC(=O)N(CCc1ccccc1)C(C#N)c1ccc(OCCCCCCCCCCOc2ccc(C(C#N)N(CCc3ccccc3)C(C)=O)cc2)cc1 (stereo not drawn)
TGI [12]: > 100 µM | TGI [1]: > 100 µM | TGI [2]: > 100 µM | TGI [3]: 51.6 µM | TGI [4]: > 100 µM | TGI [15]: 48.5 µM | TGI [7]: > 100 µM | TGI [8]: > 100 µM | TGI [13]: > 100 µM | TGI [9]: > 100 µM | TGI [10]: > 100 µM | TGI [11]: > 100 µM | TGI [14]: 98.6 µM

N#CC(Nc1ccccc1)c1ccc(C(C#N)Nc2ccccc2)cc1 (stereo not drawn)
TGI [12]: > 100 µM | TGI [1]: > 100 µM | TGI [2]: > 100 µM | TGI [3]: > 100 µM | TGI [4]: > 100 µM | TGI [15]: > 100 µM | TGI [7]: > 100 µM | TGI [8]: > 100 µM | TGI [13]: > 100 µM | TGI [9]: > 100 µM | TGI [10]: > 100 µM | TGI [11]: > 100 µM | TGI [14]: > 100 µM

COc1ccc(NC(C)=O)cc1C1CCC(=O)N1 (stereo not drawn)
TGI [12]: > 100 µM | TGI [1]: > 100 µM | TGI [2]: > 100 µM | TGI [3]: > 100 µM | TGI [4]: > 100 µM | TGI [6]: > 100 µM | TGI [15]: > 100 µM | TGI [7]: > 100 µM | TGI [8]: > 100 µM | TGI [13]: > 100 µM | TGI [9]: > 100 µM | TGI [10]: > 100 µM | TGI [11]: > 100 µM

CCOP(=O)(OCC)c1ccc(=O)[nH]c1-c1cccs1
TGI [12]: > 100 µM | TGI [1]: > 100 µM | TGI [2]: > 100 µM | TGI [3]: > 100 µM | TGI [4]: > 100 µM | TGI [5]: > 100 µM | TGI [6]: > 100 µM | TGI [7]: > 100 µM | TGI [8]: > 100 µM | TGI [13]: > 100 µM | TGI [9]: > 100 µM | TGI [11]: > 100 µM | TGI [14]: > 100 µM

Fc1ccccc1-c1nn2c(C34CC5CC(CC(C5)C3)C4)nnc2s1
TGI [1]: > 100 µM | TGI [2]: > 100 µM | TGI [3]: > 100 µM | TGI [4]: > 100 µM | TGI [5]: > 100 µM | TGI [6]: > 100 µM | TGI [15]: > 100 µM | TGI [7]: > 100 µM | TGI [8]: > 100 µM | TGI [13]: > 100 µM | TGI [9]: > 100 µM | TGI [10]: > 100 µM | TGI [11]: > 100 µM

C[C@H]1C[C@H](C)c2ccccc2N(C)C1=Nc1ccccc1
TGI [12]: > 100 µM | TGI [1]: > 100 µM | TGI [2]: > 100 µM | TGI [3]: > 100 µM | TGI [4]: 48.2 µM | TGI [5]: 58.3 µM | TGI [6]: > 100 µM | TGI [15]: 41.4 µM | TGI [7]: > 100 µM | TGI [8]: 64.4 µM | TGI [13]: > 100 µM | TGI [9]: > 100 µM | TGI [10]: 31.7 µM | TGI [11]: 72.7 µM

COC(=O)c1ccccc1/C=C1\Cc2cc(C)cc(C)c2C1=O
TGI [12]: > 100 µM | TGI [1]: > 100 µM | TGI [2]: > 100 µM | TGI [3]: > 100 µM | TGI [4]: > 100 µM | TGI [5]: > 100 µM | TGI [6]: > 100 µM | TGI [15]: > 100 µM | TGI [7]: > 100 µM | TGI [8]: > 100 µM | TGI [13]: > 100 µM | TGI [9]: > 100 µM | TGI [10]: > 100 µM | TGI [11]: > 100 µM

COc1cc(NP(=O)(Oc2ccccc2)Oc2ccccc2)ccc1Nc1c2ccccc2nc2c1[nH]c1ccccc12
TGI [12]: 25.7 µM | TGI [2]: 2.09 µM | TGI [3]: 13.1 µM | TGI [4]: > 48.5 µM | TGI [6]: 2.8 µM | TGI [15]: 28.6 µM | TGI [7]: 8.58 µM | TGI [8]: 29.2 µM | TGI [13]: 1.56 µM | TGI [9]: 23.2 µM | TGI [10]: > 100 µM | TGI [11]: 0.204 µM

CCCCCCCCCCCCC(O)C1CCC(C(O)CCCCCCC(O)CCCCCCCC2=CC(C)OC2=O)O1 (stereo not drawn)
GI50 [12]: 23.6 µM | TGI [12]: > 100 µM | TGI [1]: > 100 µM | TGI [2]: 83.1 µM | GI50 [3]: 17.5 µM | TGI [3]: > 100 µM | GI50 [4]: 12.1 µM | TGI [4]: 85.9 µM | TGI [6]: > 100 µM | TGI [15]: > 100 µM | TGI [8]: > 100 µM | TGI [9]: 82.5 µM | TGI [10]: 39.8 µM | GI50 [11]: 3.17 µM | TGI [11]: 33 µM | GI50 [14]: 34.6 µM | TGI [14]: > 100 µM

O=C1c2c(ccc3c2CCC3)CC12Cc1cc3c(cc1C2)CCC3
TGI [12]: > 100 µM | TGI [1]: > 100 µM | TGI [2]: > 100 µM | TGI [3]: > 100 µM | TGI [4]: > 100 µM | TGI [5]: > 100 µM | TGI [6]: > 100 µM | TGI [15]: > 100 µM | TGI [8]: > 100 µM | TGI [13]: > 100 µM | TGI [9]: > 100 µM | TGI [10]: > 100 µM | TGI [11]: > 100 µM

Cc1ccc(SCC(CF)OCn2cc(F)c(=O)[nH]c2=O)cc1 (stereo not drawn)
TGI [12]: > 100 µM | TGI [1]: > 100 µM | TGI [3]: > 100 µM | TGI [4]: > 100 µM | TGI [5]: > 100 µM | TGI [6]: > 100 µM | TGI [15]: > 100 µM | TGI [8]: > 100 µM | TGI [13]: > 100 µM | TGI [9]: > 100 µM | TGI [10]: > 100 µM | TGI [11]: > 100 µM

O=C(O)c1ccc(Nc2nc3ccccc3nc2-c2cccs2)cc1
TGI [1]: > 100 µM | TGI [2]: > 100 µM | TGI [3]: > 100 µM | TGI [4]: > 100 µM | TGI [5]: > 100 µM | TGI [6]: > 100 µM | TGI [15]: > 100 µM | TGI [7]: > 100 µM | TGI [8]: > 100 µM | TGI [13]: > 100 µM | TGI [9]: > 100 µM | TGI [10]: > 100 µM | TGI [11]: > 100 µM | TGI [14]: > 100 µM

OC(C/C(=N\N1CCCCC1)c1cccs1)(C(F)(F)F)C(F)(F)F
TGI [12]: > 10 µM | TGI [1]: > 10 µM | TGI [2]: > 10 µM | TGI [3]: > 10 µM | TGI [4]: > 10 µM | TGI [5]: > 10 µM | TGI [6]: > 10 µM | TGI [15]: > 10 µM | TGI [7]: > 10 µM | TGI [8]: > 10 µM | TGI [13]: > 10 µM | TGI [9]: > 10 µM | TGI [10]: > 10 µM | TGI [11]: > 10 µM

O=C(c1ccco1)N(C(=S)N1CCN(c2ccccn2)CC1)C1CCCCC1
TGI [1]: > 100 µM | TGI [2]: > 100 µM | TGI [3]: > 100 µM | TGI [4]: > 100 µM | TGI [5]: > 100 µM | TGI [6]: > 100 µM | TGI [7]: > 100 µM | TGI [8]: > 100 µM | TGI [10]: > 100 µM | TGI [11]: > 100 µM

CC1=NN(C(=O)c2ccccc2O)C(=O)/C1=C/c1ccccc1O
TGI [12]: > 64.2 µM | TGI [1]: 64.4 µM | TGI [2]: 33.7 µM | TGI [3]: > 100 µM | TGI [4]: 30.5 µM | TGI [5]: 65.4 µM | TGI [6]: 39.4 µM | TGI [15]: > 100 µM | TGI [7]: 7.2 µM | TGI [8]: > 100 µM | TGI [9]: 55.6 µM | TGI [10]: 31.9 µM | TGI [11]: 51 µM | TGI [14]: 50 µM
